# Legend:
# [1] = test system: high fat-induced obesity mice; test: Intraperitoneal insulin tolerance test (IPITT) in high fat-induced obesity mice; type: in vivo, mouse; details: for blood glucose concentration after 2 hours vs fasting blood glucose (IPITT): HFD with simultaneous administration, 0.5 U/kg insulin i.p., FIG. 7B; for time of lowest blood glucose level after insulin (IPITT): administration after long-term HFD-induced obesity, FIG. 7C
# Text: For measurement of the blood glucose concentration, an intraperitoneal insulin tolerance test (IPITT) was used.
# [2] = molecular target: T1, PPAR-γ (Homo sapiens, UniProt P37231); test: PPAR-γ activation, GAL4-PPAR-γ-LBD luciferase reporter in BE(2)C cells; type: cell-based; details: 20 h treatment, up to 50 μM, FIGS. 1A, 1B
# T1 construct: expressed in transfected cells; host or cells: BE(2)C cells
# T1 sequence (P37231 238-503 limits assumed): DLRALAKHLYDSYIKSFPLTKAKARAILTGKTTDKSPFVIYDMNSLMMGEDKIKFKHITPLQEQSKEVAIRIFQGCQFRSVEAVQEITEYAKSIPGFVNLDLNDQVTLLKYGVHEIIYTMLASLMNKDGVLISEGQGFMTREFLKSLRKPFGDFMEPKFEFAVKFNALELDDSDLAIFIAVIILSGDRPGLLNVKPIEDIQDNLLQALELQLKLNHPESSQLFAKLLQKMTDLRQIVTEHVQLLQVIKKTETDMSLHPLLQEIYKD
# Description: (§1) To examine whether amodiaquine acts as a ligand of […] or PPAR-α, three types of vectors were used.
# (§2) The activation of luciferase expression was measured after BE(2)C cells were transformed with a GAL4-PPAR-γ-LBD plasmid or a GAL4-PPAR-α-LBD plasmid, a GAL4-luciferase vector, and a β-galactosidase vector for 6 hours, treated with amodiaquine for 20 hours, and then grown in a 5% CO2 incubator.
# [3] = test system: KKAy mice; test: Fasting blood glucose in KKAy mice (amodiaquine); type: in vivo, mouse; details: 18 mg/kg oral daily for 6 weeks, control 132.4 mg/dl
# Description: (§3) 5-week-old KKAy purchased from Clea Japan was preliminarily raised for one week and then divided into two groups (5 individuals per group). The first group was administered PBS and set as a negative control, and the second group was orally administered amodiaquine at a concentration of 18 mg/kg daily for 6 weeks. […] For measurement of the blood glucose concentration, an intraperitoneal glucose tolerance test (IPGTT) was used.
# [4] = molecular target: T2, PPAR-α (Homo sapiens, UniProt Q07869); test: PPAR-α activation, GAL4-PPAR-α-LBD luciferase reporter in BE(2)C cells; type: cell-based; details: 20 h treatment, up to 50 μM, FIGS. 1C, 1D
# T2 construct: expressed in transfected cells; host or cells: BE(2)C cells
# T2 sequence (Q07869 239-466 limits assumed): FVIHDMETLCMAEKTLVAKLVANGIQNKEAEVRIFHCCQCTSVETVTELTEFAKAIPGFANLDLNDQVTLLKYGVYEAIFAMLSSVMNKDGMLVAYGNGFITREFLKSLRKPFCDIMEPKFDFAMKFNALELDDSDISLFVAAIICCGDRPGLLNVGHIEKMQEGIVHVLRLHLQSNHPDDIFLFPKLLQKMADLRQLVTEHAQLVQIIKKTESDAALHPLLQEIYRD
# Description: as §1, §2
# [5] = test system: ACOX, CPT-1, and mCAD genes; test: Expression of PPAR-α target genes in liver, muscle and adipose tissues (real-time PCR); type: in vivo, mouse; details: muscle, adipose tissues, HFD 14 weeks, FIGS. 9A-9C
# Description: Among the experimental animals designed in Example 5, mice of the high fat-induced obesity mouse groups fed a high fat diet for 14 weeks were sacrificed by cervical spine dislocation, fixed on a dissection stand, and then subjected to dissection with a scalpel to extract liver, muscle, and adipose tissues, and primer base sequences of (β-actin, ACOX, CPT-1, and mCAD are as follows:
# After each tissue was disrupted using a grinding instrument, RNA was extracted using TRIzol, and cDNA was synthesized using reverse transcription polymerase chain reaction (RT PCR). […] The ACOX, CPT-1, and mCAD genes were calibrated with β-actin, thereby obtaining resultant values.
# [6] = test system: KKAy mice; test: Intraperitoneal glucose tolerance test (IPGTT) in KKAy mice; type: in vivo, mouse; details: 18 mg/kg oral daily for 6 weeks, 2 g/kg glucose i.p., control 293.2 mg/dl
# Description: as §3
# [7] = test system: high fat-induced obesity mice; test: Oral glucose tolerance test (OGTT) in high fat-induced obesity mice; type: in vivo, mouse; details: HFD mice, 2 g/kg glucose oral; HFD control 180.5 mg/dl; FIG. 7A
# Description: After fasting for 16 hours, 2 g/kg of glucose was orally administered to each of the control and experimental group animals, and a blood glucose concentration was measured every 30 minutes for 2 hours. For measurement of the blood glucose concentration, an oral glucose tolerance test (OGTT) was used.
# [8] = test system: high fat-induced obesity mice; test: Body weight of high fat-induced obesity mice; type: in vivo, mouse; details: amodiaquine 20 mg/kg
# Description: To measure a decrease in body weight of mice by amodiaquine, 7-week-old male C57BL/6 mice (Charles River Laboratories, Tokyo, Japan) were purchased and raised under certain conditions (temperature: 22±2° C., relative humidity: 55±10%, and light/dark cycle: 12 hours). The mice were grouped into 7 individuals per group, freely fed water and diets in a cage, and then acclimated for 1 week before an experiment.
# An average body weight was calculated by dividing the sum of weights of 7 mice per group by the number of mice.
# [9] = test system: KKAy mice; test: Glycated hemoglobin (HbA1C) in KKAy mice (amodiaquine); type: in vivo, mouse; details: 18 mg/kg oral daily for 6 weeks, FIG. 4
# Description: As in Example 3, the first group of experimental animals was administered PBS and set as a control, and the second group was orally administered amodiaquine at a concentration of 18 mg/kg using a 1 ml syringe daily for 6 weeks.
# [10] = test system: high fat-induced obesity mice; test: Heat production, 4° C. cold test in high fat-induced obesity mice; type: in vivo, mouse; details: HFD 14 weeks, up to 6 hours at 4° C.; FIG. 6
# Description: To measure the heat production capability of mice fed a high fat diet for 14 weeks among the experimental animals designed in Example 5, a 4° C. cold test was performed (Spiegelman B. M. et al., Cell 92: 829-839, 1998). Hereinafter, the measurement method will be described in detail. A body temperature of mice in the high fat-induced obesity mouse group was measured before being exposed to 4° C., and recorded as an experiment start measurement temperature, and then the mice were exposed in a 4° C. room for up to 6 hours, followed by measurement of body temperature every hour. The body temperature was measured using a rectal thermometer for a mouse (Testo 925, Germany). A heat production measurement value indicated a temperature measured every hour.
# [11] = test system: C2C12 myotube cells; test: Glucose uptake ([3H]2-DOG) in C2C12 myotube cells; type: cell-based, mouse; details: 10 μM or 30 μM, 24 h; compared with 50 μM rosiglitazone; FIG. 2
# Description: The phosphorylation of insulin receptors occurs due to signal transduction by insulin in muscle, adipose, liver cells, and the like, and accordingly, when various proteins located downstream are phosphorylated, glucose uptake increases, resulting in reduced blood glucose. Thus, a glucose uptake evaluation experiment was carried out to identify whether amodiaquine is effective for diabetes. C2C12 myoblasts, which are muscle cells, were cultured in DMEM containing 10% […]. When the cell density reached about 80% to about 90%, the medium was replaced with fresh 2% horse serum-containing DMEM, and cell differentiation of the C2C12 myoblasts into myotubes was induced to completely differentiate the cells, and then an experiment was carried out. […] Washing was repeated three times every twenty minutes. Subsequently, 1 ml of KRP buffer was injected, a solution (0.2 mM, 0.2 μCi) prepared by dissolving unlabeled 2-DOG and [^3H]2-DOG (Amersham Pharmacia) in KRP buffer was added to the resulting cells at 37° C. to allow treatment for exactly 10 minutes.
# [12] = test system: high fat-induced obesity mice; test: Fatty liver histology (hematoxylin & eosin) in high fat-induced obesity mice; type: in vivo, mouse; details: HFD mice, 14 weeks and 22 weeks; FIGS. 8A and 8B
# Description: Among the experimental animals designed in Example 5, mice in the high fat-induced obesity mouse group fed a high fat diet for 14 weeks with drug administration and high fat-induced obesity mice fed a high fat diet for 7 weeks with drug administration after obesity was induced by a high fat diet for 15 weeks were sacrificed by cervical spine dislocation, fixed on a dissection stand, and subjected to abdominal dissection with a scalpel to extract the liver. The extracted liver tissue was fixed in a 10% formalin solution to prevent contractile deformation. After 24 hours, the fixed tissue was washed with running water, and then general tissue dehydration, clearing, and penetration were performed thereon using an automatic tissue processor (6460B, Sakura, Japan) for 14 hours, and manufacture of paraffin blocks and cooling were performed using an automated embedding device (Tissue-Tex, Japan). The manufactured paraffin blocks were continuously sliced to a thickness of 4 m to 5 m in a vertical direction of the tissue using a rotary microtome 2040 (Japan), and attached to slides after processing using a floating hot water tank and a slide warming table. […]
SMILES,blood glucose concentration after 2 hours vs fasting blood glucose (IPITT) [1],PPAR-γ activity (luciferase expression) [2],time of lowest blood glucose level after insulin (IPITT) [1] [min],fasting blood glucose concentration [3] [mg/dL],PPAR-α activity (luciferase expression) [4],"increase in expression amounts of the ACOX, CPT-1, and mCAD genes as compared to the control [5] [fold]",blood glucose concentration 2 hours after glucose loading (IPGTT) [6] [mg/dL],blood glucose concentration 2 hours after glucose loading (OGTT) [7] [mg/dL],"body weight vs high fat-induced obesity mice ([8]; HFD with substance administration for 14 weeks, FIG. 5A)","body weight vs high fat-induced obesity mice ([8]; substance administration for 7 weeks after obesity induced by HFD for 15 weeks, rosiglitazone 50 mg/kg, FIG. 5C)",glycated hemoglobin production as compared to control mice [9],body temperature on exposure to 4° C. (heat production) [10],glucose uptake [11],"liver appearance (fat accumulation, H&E) [12]"
"Cc1cccc(Nc2cc(Cl)nc(SCC(=O)O)n2)c1C [WY-14,643]",maintained at a lower level than the fasting blood glucose concentration,did not exhibit PPAR-γ activity,–,–,–,–,–,–,–,–,–,–,–,–
CN(CCOc1ccc(CC2SC(=O)NC2=O)cc1)c1ccccn1 (centres unmarked) [rosiglitazone],–,–,60,–,–,–,–,–,–,–,–,–,–,–
CCN(CC)Cc1cc(Nc2ccnc3cc(Cl)ccc23)ccc1O [amodiaquine],maintained at a lower level than the fasting blood glucose concentration,higher PPAR-γ activity in a concentration-dependent manner than that of the positive control treated with rosiglitazone,30,100.2,high PPAR-α activity in a concentration-dependent manner,≥ 215,207,139.1,significantly lower than that of the high fat-induced obesity mice,significant decrease in body weight,approximately 69%,smaller decrease in body temperature than that of the high fat-induced obesity mice,further increased as compared to that in the group treated with rosiglitazone,almost the same appearance as that of normal mice

# Reference: patent US10792280B2, “Pharmaceutical composition comprising amodiaquine and anti-diabetes drug as effective ingredient for prevention or treatment of diabetes” (NOVMETAPHARMA CO., LTD., priority 2016, dated 2020)
